For one assay, the system named is murine PBMC. The assay can be described thus: In vitro cytokine induction in murine PBMC (multiplex assay). The following applies: 2 to 10 μM, 24 hours, dose-dependent.
A further assay addresses human TLR7 (Homo sapiens (Human), UniProt Q9NYK1). Description: HEK293-Blue-hTLR-7 cells assay (SEAP reporter, NF-κB activation). Type of assay: cell-based. The conditions noted are these: HEK293-Blue-hTLR-7 cells, 20 hours incubation, SEAP reporter; read-out: HEK293- hTLR-7 EC50. An excerpt:
HEK293-Blue-hTLR-7 Cells Assay: A stable HEK293-Blue-hTLR-7 cell line was purchased from InvivoGen (Cat.#: hkb-htlr7, San Diego, Calif., USA). These cells were designed for studying the stimulation of human TLR7 by monitoring the activation of NF-κB. A SEAP (secreted embryonic alkaline phosphatase) reporter gene was placed under the control of the IFN-β[…] minimal promoter fused to five NF-κB and AP-1-binding sites. The SEAP was induced by activating NF-κB and AP-1 via stimulating HEK-Blue hTLR7 cells with TLR7 ligands. Therefore the reporter expression was regulated by the NF-κB promoter upon stimulation of human TLR7 for 20 hours. The cell culture supernatant SEAP reporter activity was determined using QUANTI-Blue™ kit (Cat.#: rep-qb1, Invivogen, San Diego, Calif., USA) at a wavelength of 640 nm, a detection medium that turns purple or blue in the presence of alkaline phosphatase. […] Then 20 μL of the supernatant from each well was incubated with 180 μL Quanti-blue substrate solution at 37° C. for 2 hours and the absorbance was read at 620˜655 nm using a spectrophotometer. […] Hiroaki Hemmi et al, Nature Immunology 3, 196-200 (2002).

A further assay concerns the target murine TLR7 (Mus musculus (Mouse), UniProt P58681). The assay can be described thus: HEK293-Blue-mTLR7 cell assay (SEAP reporter). It counts as cell-based. The following applies: HEK293-Blue-mTLR7 cells, 20 hours incubation; read-out: EC50 of murine TLR7 activation. On the procedure:
FIG. 1: Example 1-A activates murine TLR7 in a HEK-Blue-mTLR assay. The cells were incubated with Example 1-A and a positive control GS-9620 at indicated concentrations for 20 hours. The activation of murine TLR7 was measured using a Quanti-Blue assay.
TLR7 Agonist Example 1-A Activates Murine TLR7
The potency of the TLR7 agonist Example 1-A activating murine TLR7 was assessed using a stable HEK293-Blue-mTLR7 cell line available from InvivoGen (Cat.#: hkb-mtlr7, San Diego, Calif., USA). Similar to the HEK293-Blue-hTLR7 as described in Example 43, the HEK293-Blue-mTLR7 is designed for studying the stimulation of murine TLR7 by monitoring the activation of NF-κB. A SEAP reporter gene was placed under the control of the IFN-β minimal promoter fused to five NF-κB and AP-1-binding sites. The SEAP expression was induced by the activation of NF-κB and AP-1 upon stimulation of murine TLR7 with TLR7 ligands. SEAP expression in cell culture supernatant was determined using a QUANTI-Blue™ kit (Cat.#: rep-qb1, Invivogen, San Diego, Calif., USA), a detection medium that turns purple/blue in the presence of alkaline phosphatase, at a wavelength of 655 nm. […]

human TLR7, sequence (Q9NYK1 27-1049): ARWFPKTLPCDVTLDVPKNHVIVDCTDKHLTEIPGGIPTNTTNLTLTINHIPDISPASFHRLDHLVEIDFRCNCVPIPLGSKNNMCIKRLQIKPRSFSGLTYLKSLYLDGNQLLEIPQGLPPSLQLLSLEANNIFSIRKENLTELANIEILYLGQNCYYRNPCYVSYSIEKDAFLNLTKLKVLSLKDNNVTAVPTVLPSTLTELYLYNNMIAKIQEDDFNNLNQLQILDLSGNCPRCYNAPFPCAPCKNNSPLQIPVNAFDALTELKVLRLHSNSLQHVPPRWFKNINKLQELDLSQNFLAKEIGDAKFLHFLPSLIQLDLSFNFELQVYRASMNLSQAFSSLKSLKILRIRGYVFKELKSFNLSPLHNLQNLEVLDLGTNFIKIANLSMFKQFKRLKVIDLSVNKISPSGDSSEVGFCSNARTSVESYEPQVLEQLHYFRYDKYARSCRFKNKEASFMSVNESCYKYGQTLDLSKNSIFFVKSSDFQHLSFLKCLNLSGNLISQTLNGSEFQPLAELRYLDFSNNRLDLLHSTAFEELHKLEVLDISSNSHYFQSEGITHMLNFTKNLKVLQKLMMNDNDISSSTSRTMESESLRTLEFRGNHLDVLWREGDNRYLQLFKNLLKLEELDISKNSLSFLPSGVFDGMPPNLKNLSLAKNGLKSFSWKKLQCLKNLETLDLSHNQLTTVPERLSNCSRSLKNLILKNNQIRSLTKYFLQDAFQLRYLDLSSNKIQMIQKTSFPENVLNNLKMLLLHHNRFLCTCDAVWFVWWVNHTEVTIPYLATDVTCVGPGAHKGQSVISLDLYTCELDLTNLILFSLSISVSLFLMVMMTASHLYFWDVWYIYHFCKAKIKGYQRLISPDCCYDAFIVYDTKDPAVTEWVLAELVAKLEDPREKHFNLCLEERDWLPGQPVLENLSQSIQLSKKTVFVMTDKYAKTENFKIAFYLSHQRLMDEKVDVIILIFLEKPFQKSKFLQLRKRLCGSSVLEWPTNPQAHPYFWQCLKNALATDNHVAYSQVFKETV
murine TLR7, sequence (P58681 27-1050 limits assumed): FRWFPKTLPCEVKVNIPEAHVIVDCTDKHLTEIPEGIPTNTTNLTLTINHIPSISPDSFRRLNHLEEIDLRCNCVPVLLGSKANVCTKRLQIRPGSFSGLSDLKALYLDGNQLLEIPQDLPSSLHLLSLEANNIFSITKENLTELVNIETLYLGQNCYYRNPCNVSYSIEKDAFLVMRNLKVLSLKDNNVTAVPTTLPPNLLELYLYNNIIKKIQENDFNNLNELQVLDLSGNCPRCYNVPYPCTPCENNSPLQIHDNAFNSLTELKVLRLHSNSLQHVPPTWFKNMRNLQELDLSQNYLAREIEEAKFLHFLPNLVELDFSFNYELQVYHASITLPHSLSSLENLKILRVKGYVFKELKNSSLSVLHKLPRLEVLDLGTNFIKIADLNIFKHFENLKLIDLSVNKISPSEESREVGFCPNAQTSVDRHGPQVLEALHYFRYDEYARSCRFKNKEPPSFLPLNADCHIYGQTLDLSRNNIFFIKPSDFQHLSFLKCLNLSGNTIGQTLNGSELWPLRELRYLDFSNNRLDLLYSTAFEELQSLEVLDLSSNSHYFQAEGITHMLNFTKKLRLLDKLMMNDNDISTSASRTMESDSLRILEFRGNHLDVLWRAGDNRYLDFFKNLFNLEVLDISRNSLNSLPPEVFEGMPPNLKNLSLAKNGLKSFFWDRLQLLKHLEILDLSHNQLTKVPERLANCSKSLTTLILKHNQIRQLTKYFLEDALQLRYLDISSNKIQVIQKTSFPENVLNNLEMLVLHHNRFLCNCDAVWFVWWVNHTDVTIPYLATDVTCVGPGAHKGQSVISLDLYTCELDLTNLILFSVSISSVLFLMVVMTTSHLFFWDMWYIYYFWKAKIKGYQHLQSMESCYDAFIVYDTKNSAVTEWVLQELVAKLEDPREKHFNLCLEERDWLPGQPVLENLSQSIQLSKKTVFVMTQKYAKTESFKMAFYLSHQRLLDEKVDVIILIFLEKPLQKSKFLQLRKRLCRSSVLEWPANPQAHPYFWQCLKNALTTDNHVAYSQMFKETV
Description for murine PBMC: Supernatants were collected at 24 hour post treatment and cytokine levels in supernatants were assessed by a multiplex assay.
50 μL of cell culture medium was collected and analyzed with a 36 plex Procarta multiplex kit (ebioscience EPX360-26092-901, eBioscience), which measured the levels of 15 cytokine analytes, following the manufacturer's instruction.

By EC50 is commonly meant the concentration needed to bring the measured effect to its halfway point. In the case of `CCC(O)[C@@H]1C[C@@H](O)[C@H](n2c(=O)sc3c(=O)[nH]c(N)nc32)O1` (single isomer, unassigned) [Example 1-A], in the assay with murine PBMC, the IFNα induction entry is “high levels”, the IL-6 induction entry is recorded as “high levels”, the IP10 induction entry is “high levels” and the TNFα induction result is “high levels”. The EC50 at human TLR7 came to 52 µM. The concentration for a half-maximal effect (EC50) on murine TLR7 came out at 71.8 µM.

The record behind these values is US10040815B2, “3-substituted 5-amino-6H-thiazolo[4,5-d]pyrimidine-2,7-dione compounds for the treatment and prophylaxis of virus infection” (Hoffmann-La Roche Inc., priority 2014, dated 2018).
